The nature of this data set: Iodide concentration in plasma of treated human volunteers by ion chromatography with amperometric detection. It is filed as in vivo. The note with it: plasma samples from human volunteers treated with various dosages of sodium iodide, protein precipitation with acetonitrile. How it is done: Plasma samples were obtained from Bioreclamation IVT in 10 mL aliquots of frozen plasma in lithium heparin. The plasma samples were normal plasma samples obtained from healthy male and female volunteers who were not treated with iodide. The plasma samples were prepared according to the following protocol. • 0.5 mL plasma was diluted 3:1 with pure acetonitrile for protein precipitation before analysis by Amperometric detection. (ex: 0.5 mL […] plus 1.5 mL pure Acetonitrile) • Samples were mixed gently and then centrifuged at max speed (14,000 rpm or 20,817 rcf) for 2 minutes. • Supernatant was carefully removed as to not disturb protein pellet, and transferred to a clean Eppendorf tube. • Supernatants were again centrifuged at max speed for 2 minutes. • Samples were spiked as necessary with NaI to fall between 2.5 and 200 ppb NaI concentrations. • 270 μL or 1 mL volumes of samples were analyzed by Amperometric detection on IC against a standard curve in a diluent matrix.
Plasma samples were obtained from human volunteers treated with various dosages of sodium iodide. The plasma samples were processed and sodium iodide concentrations determined essentially as described in Example 3.

Structures are written as SMILES.

`[I-].[Na+]` [sodium iodide]: the “determined serum concentrations of sodium iodide” value was “positively correlated with dosages administered”.

The values above are taken from patent US20200096496A1, “IODIDE DETECTION IN BLOOD PLASMA SAMPLES” (Faraday Pharmaceuticals, Inc., priority 2017, published 2020).
